According to patent publication US10532053B2, “Histone deacetylase inhibitor, and preparation method and use thereof” (GUANGDONG ZHONGSHENG PHARMACEUTICAL CO., LTD, priority 2015, dated 2020):
Like-named read-outs stand apart in the source and are kept apart here.

Legend:
HDAC1 = target: T1, HDAC1 (Homo sapiens, UniProt Q13547); test: HDAC inhibitory activity, fluorescence-coupled acetylated peptide substrate assay (Lys-Ac-AMC); assay type: biochemical
T1 construct: purchased BPS Bioscience
Description: (§2) The HDAC inhibitory activity was determined by fluorescence-coupled acetylated peptide substrate assay (Lys-Ac-AMC). HDAC1 protein was purchased from BPS Bioscience, and the reaction buffer system was a modified tris(hydroxymethyl)aminomethane buffer (pH 7.0). The small molecule compounds of the present invention were prepared by being dissolved in 100% DMSO. HDAC was prepared in a buffer at a certain concentration as an enzyme solution; trypsin and fluorescent group 4-amino-7-coumarin coupled-acetylated peptide (Ac-peptide) substrate were prepared in a buffer at a certain concentration as a substrate solution. The compounds were added into the reaction wells in a 384-well plate at a designed concentration of 10 μM, 1 μM, 0.5 μM, 0.1 μM, 0.05 μM, 0.01 μM, 0.005 μM, 0.001 μM, and 0.00005 μM, respectively, and then 15 μl of the HDAC solution was added into the reaction wells (15 μl of blank buffer to the control well). […] The results were analyzed by GraphPad Prism software and IC50 values were calculated according to the formula: Y=Background Data+(Top Data−Background Data)/(1+10^((Log IC50−X) a curve slope)), where Y: the inhibition rate (%) and X: the concentration of the compound.

[1] = tested on: Human cervical cancer cell Hela; test: Cell proliferative activity (MTT / cck-8); assay type: cell-based; details: incubated for 96 hours, read-out: Half-Inhibitory Concentration IC50 Human cervical cancer cell Hela
Description: (§1) Tumor cell line A375: human melanoma cell; H460: lung adenocarcinoma cell; Hela: human cervical cancer cell; HepG2: human liver cancer cell; and SKOV-3: human ovarian cancer cell, were all purchased from ATCC and cultured to logarithmic phase according to the cultivation protocol recommended by ATCC. The cells in the logarithmic phase were plated onto a 96-well plate at 2000-3000 cells/well; in the case of adherent cells, the cells should be adherent to the wall. […] After that, the cell proliferative activity was determined by MTT assay for the tumor cells representing the solid tumor model and by cck-8 assay for the tumor cells representing the hematologic tumor model.

[2] = tested on: Human ovarian cancer cell SKOV-3; test: Cell proliferative activity (MTT / cck-8); assay type: cell-based; details: SK-OV-3, incubated for 96 hours, read-out: Half-Inhibitory Concentration IC50 Human ovarian cancer cell SKOV-3
Description: as §1

[3] = tested on: Human liver cancer cell HepG2; test: Cell proliferative activity (MTT / cck-8); assay type: cell-based; details: incubated for 96 hours, read-out: Half-Inhibitory Concentration IC50 Human liver cancer cell HepG2
Description: as §1

[4] = tested on: Human lung cancer cell H460; test: Cell proliferative activity (MTT / cck-8); assay type: cell-based; details: NCI-H460, incubated for 96 hours, read-out: Half-Inhibitory Concentration IC50 Human lung cancer cell H460
Description: as §1

Human melanoma A375 = test: Cell proliferative activity (MTT / cck-8); assay type: cell-based; details: A-375, incubated for 96 hours, read-out: Half-Inhibitory Concentration IC50 Human melanoma A375
Description: as §1

HDAC8 = target: T2, HDAC8 (Homo sapiens, UniProt Q9BY41); test: HDAC inhibitory activity, fluorescence-coupled acetylated peptide substrate assay
T2 sequence (Q9BY41 1-377): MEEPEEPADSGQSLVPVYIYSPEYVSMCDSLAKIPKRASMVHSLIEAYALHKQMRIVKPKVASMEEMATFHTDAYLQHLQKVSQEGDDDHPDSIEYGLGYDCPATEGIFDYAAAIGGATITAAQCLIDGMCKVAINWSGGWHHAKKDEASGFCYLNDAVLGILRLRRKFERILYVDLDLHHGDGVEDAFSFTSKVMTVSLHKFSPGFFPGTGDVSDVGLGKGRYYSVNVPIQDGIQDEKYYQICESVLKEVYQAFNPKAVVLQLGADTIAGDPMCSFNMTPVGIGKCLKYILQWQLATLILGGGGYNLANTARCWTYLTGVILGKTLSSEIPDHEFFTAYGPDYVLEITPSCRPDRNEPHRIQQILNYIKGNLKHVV
Description: as §2

HDAC6 = target: T3, HDAC6 (Homo sapiens, UniProt Q9UBN7); test: as above; assay type: biochemical; details: for Selection Ratio HDAC1/6: ratio of IC50 HDAC1 to HDAC6; for Selection Ratio HDAC8/6: ratio of IC50 HDAC8 to HDAC6
T3 sequence (Q9UBN7 1-1215): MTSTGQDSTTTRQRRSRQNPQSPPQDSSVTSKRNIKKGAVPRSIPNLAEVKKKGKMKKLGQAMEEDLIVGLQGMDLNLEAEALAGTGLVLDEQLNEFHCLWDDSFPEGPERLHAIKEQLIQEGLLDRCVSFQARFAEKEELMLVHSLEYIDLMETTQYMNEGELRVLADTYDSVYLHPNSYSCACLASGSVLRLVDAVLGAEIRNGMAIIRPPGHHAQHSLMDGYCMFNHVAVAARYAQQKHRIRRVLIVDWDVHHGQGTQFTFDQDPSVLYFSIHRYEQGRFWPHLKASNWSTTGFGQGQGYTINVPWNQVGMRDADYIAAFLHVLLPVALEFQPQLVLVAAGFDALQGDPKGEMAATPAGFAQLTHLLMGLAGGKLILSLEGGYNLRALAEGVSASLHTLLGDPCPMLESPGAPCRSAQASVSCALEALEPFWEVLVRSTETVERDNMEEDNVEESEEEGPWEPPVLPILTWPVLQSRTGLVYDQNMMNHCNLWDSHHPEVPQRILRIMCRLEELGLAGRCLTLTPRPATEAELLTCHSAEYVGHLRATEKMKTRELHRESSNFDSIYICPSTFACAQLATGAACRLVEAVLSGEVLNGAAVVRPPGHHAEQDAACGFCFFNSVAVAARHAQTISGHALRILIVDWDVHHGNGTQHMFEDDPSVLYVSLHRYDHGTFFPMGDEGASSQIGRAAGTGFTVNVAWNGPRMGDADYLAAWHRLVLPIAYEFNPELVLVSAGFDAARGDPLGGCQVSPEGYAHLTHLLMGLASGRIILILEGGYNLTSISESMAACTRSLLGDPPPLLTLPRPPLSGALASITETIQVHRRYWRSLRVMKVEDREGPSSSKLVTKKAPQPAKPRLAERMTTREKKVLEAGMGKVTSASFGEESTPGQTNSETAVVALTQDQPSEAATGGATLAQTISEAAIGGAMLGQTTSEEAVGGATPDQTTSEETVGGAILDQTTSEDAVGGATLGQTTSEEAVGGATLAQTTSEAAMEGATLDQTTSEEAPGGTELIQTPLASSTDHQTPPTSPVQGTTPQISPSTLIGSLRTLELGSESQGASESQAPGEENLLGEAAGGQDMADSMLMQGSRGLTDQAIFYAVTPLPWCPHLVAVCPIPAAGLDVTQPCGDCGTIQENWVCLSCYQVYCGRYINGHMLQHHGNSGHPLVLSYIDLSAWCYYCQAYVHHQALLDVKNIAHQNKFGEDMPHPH
Description: as §2

T1 sequence (Q13547 whole entry): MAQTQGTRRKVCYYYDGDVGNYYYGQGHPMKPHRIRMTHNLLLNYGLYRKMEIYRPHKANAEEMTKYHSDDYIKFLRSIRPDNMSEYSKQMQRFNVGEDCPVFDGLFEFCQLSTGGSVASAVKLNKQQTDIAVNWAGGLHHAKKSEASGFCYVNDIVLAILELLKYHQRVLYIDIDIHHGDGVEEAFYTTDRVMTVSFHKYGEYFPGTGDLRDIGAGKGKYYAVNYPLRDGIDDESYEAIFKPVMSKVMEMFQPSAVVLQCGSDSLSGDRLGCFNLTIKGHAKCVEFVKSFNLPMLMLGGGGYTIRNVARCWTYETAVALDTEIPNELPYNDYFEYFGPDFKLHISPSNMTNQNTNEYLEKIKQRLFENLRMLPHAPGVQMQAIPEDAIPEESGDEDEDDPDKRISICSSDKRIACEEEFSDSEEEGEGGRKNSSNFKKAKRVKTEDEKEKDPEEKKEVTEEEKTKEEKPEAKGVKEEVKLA

SMILES | IC50 (HDAC1; Table 2) | IC50 [1] | IC50 [2] | IC50 [3] | IC50 [4] | IC50 (Human melanoma A375) | IC50 (HDAC8; IC50 HDAC8, Table 2) | IC50 (HDAC6; Table 2) | IC50 (HDAC1; Table 3) | IC50 (HDAC8; IC50 HDAC8, Table 3) | IC50 (HDAC6; Table 3) | Selection Ratio HDAC1/6 (HDAC6) | Selection Ratio HDAC8/6 (HDAC6) | IC50 (HDAC8; read-out: IC50 HDAC8, Table 3)
Cc1nc(N(C)c2cccc(OCCCCC(=O)NO)c2)c2ccccc2n1 [III-14, N-hydroxy-5-(3-(methyl(2-methyl-4-quinazolinyl)amino)phenoxy)pentanamide] | 0.1 to 1 µM | 0.01 to 0.1 µM | 0.01 to 0.1 µM | 0.01 to 0.1 µM | 0.1 to 1 µM | 0.1 to 1 µM | > 1 µM | 0.1 to 1 µM |  |  |  |  |  | 
Cc1nc(N(C)c2cccc(OCCCC(=O)NO)c2)c2ccccc2n1 [III-13, N-hydroxy-4-(3-(methyl(2-methyl-4-quinazolinyl)amino)phenoxy)butanamide] | 0.1 to 1 µM | 0.1 to 1 µM | 0.01 to 0.1 µM | 0.01 to 0.1 µM | 0.1 to 1 µM | 0.1 to 1 µM | > 1 µM | 0.1 to 1 µM |  |  |  |  |  | 
CCCN(c1ccc(OC)c(OCCCC(=O)NO)c1)c1nc(C)nc2ccccc12 [IV-2, N-hydroxy-4-(2-methoxy-5-((2-methyl-4-quinazolinyl)(propyl)amino)phenoxy)butanamide] | > 1 µM | > 1 µM | 0.1 to 1 µM | 0.1 to 1 µM | 0.1 to 1 µM | 0.1 to 1 µM | > 1 µM | > 1 µM |  |  |  |  |  | 
Cc1nc(N(C)c2ccc(Oc3ccc(C(=O)NO)cc3)cc2)c2ccccc2n1 [II-6, N-hydroxy-4-(4-(methyl(2-methyl-4-quinazolinyl)amino)phenoxy)benzamide] | 0.1 to 1 µM | 0.1 to 1 µM | 0.1 to 1 µM | 0.1 to 1 µM | 0.1 to 1 µM | 0.1 to 1 µM | > 1 µM | 0.01 to 0.1 µM | 0.552 µM | 4.93 µM | 0.072 µM | 7.7 | 68.5 | 
Cc1nc(N(C)c2ccc(OCc3ccc(C(=O)NO)cc3)cc2)c2ccccc2n1 [II-5, N-hydroxy-4-((4-(methyl(2-methyl-4-quinazolinyl)amino)phenoxy)methyl)benzamide] |  | > 1 µM | > 1 µM | > 1 µM | > 1 µM | > 1 µM | > 1 µM | < 0.01 µM |  | 2.38 µM | 0.0064 µM | 6.9 | 371.3 | 
CN(c1ccc(OCc2ccc(C(=O)NO)cc2)cc1)c1ncnc2ccccc12 [II-16, N-hydroxy-4-((4-(methyl(4-quinazolinyl)amino)phenoxy)methyl)benzamide] | 0.1 to 1 µM | > 1 µM | > 1 µM | > 1 µM | > 1 µM | > 1 µM | > 1 µM | < 0.01 µM | 0.385 µM | 1.68 µM | 0.01 µM | 38.5 | 167.6 | 
CN(c1ccc(OCCCCCC(=O)NO)cc1)c1ncnc2ccccc12 [II-15, N-hydroxy-6-(4-(methyl(4-quinazolinyl)amino)phenoxy)hexanamide] | 0.1 to 1 µM | > 1 µM | > 1 µM | > 1 µM | > 1 µM | 0.1 to 1 µM | > 1 µM | 0.01 to 0.1 µM | 0.176 µM |  | 0.019 µM | 9.3 | 55.7 | 1.06 µM
Cc1nc(N(C)c2ccc(OCC(=O)NO)cc2)c2ccccc2n1 [II-1, N-hydroxy-2-(4-(methyl(2-methyl-4-quinazolinyl)amino)phenoxy)acetamide] | 0.1 to 1 µM | 0.1 to 1 µM | 0.1 to 1 µM | 0.1 to 1 µM | 0.1 to 1 µM | > 1 µM | > 1 µM | < 0.01 µM | 0.172 µM |  | 0.0086 µM | 20.0 | 137.3 | 1.18 µM
Cc1nc(N(C)c2cccc(OCCCCCC(=O)NO)c2)c2ccccc2n1 [III-15, N-hydroxy-6-(3-(methyl(2-methyl-4-quinazolinyl)amino)phenoxy)hexanamide] | 0.01 to 0.1 µM | 0.1 to 1 µM | 0.1 to 1 µM | 0.1 to 1 µM | 0.1 to 1 µM | > 1 µM | > 1 µM | 0.01 to 0.1 µM |  |  |  |  |  | 
Cc1nc(N(C)c2cccc(OCC(=O)NO)c2)c2ccccc2n1 [III-12, N-hydroxy-2-(3-(methyl(2-methyl-4-quinazolinyl)amino)phenoxy)acetamide] | 0.1 to 1 µM | 0.1 to 1 µM | 0.1 to 1 µM | 0.1 to 1 µM | 0.1 to 1 µM | > 1 µM | > 1 µM | 0.01 to 0.1 µM |  |  |  |  |  | 
Cc1nc(N(C)c2ccc(OCCCCCC(=O)NO)cc2)c2ccccc2n1 [II-4, N-hydroxy-6-(4-(methyl(2-methyl-4-quinazolinyl)amino)phenoxy)hexanamide] | 0.1 to 1 µM | > 1 µM | 0.1 to 1 µM | > 1 µM | > 1 µM | > 1 µM | > 1 µM | 0.01 to 0.1 µM | 0.272 µM |  | 0.034 µM | 8.0 | 44.4 | 1.51 µM
CCCCCN(c1ccc(OC)c(OCCCC(=O)NO)c1)c1nc(C)nc2ccccc12 [IV-4, N-hydroxy-4-(2-methoxy-5-((2-methyl-4-quinazolinyl)(pentyl)amino)phenoxy)butanamide] | 0.01 to 0.1 µM | 0.1 to 1 µM | > 1 µM | 0.1 to 1 µM | > 1 µM | 0.1 to 1 µM | > 1 µM | 0.01 to 0.1 µM |  |  |  |  |  | 
CN(c1ccc(OCCCC(=O)NO)cc1)c1ncnc2ccccc12 [II-13, N-hydroxy-4-(4-(methyl(4-quinazolinyl)amino)phenoxy)butanamide] | 0.01 to 0.1 µM | 0.1 to 1 µM | 0.1 to 1 µM | 0.1 to 1 µM | 0.1 to 1 µM | 0.1 to 1 µM | > 1 µM | 0.01 to 0.1 µM | 0.076 µM |  | 0.034 µM | 2.2 | 72.3 | 2.46 µM
Cc1nc(Nc2ccc(OCCC(=O)NO)cc2)c2ccccc2n1 [II-24, N-hydroxy-3-(4-((2-methyl-4-quinazolinyl)amino)phenoxy)propionamide] | > 1 µM | > 1 µM | > 1 µM | > 1 µM | > 1 µM | > 1 µM | > 1 µM | 0.1 to 1 µM |  |  |  |  |  | 
